According to ChEMBL document CHEMBL3804811 (J Med Chem, 2016):

Tested on: not listed separately
Assay: Antiproliferative activity against human KARPAS299 cells incubated for 72 hrs by cell titer-glo assay
Details: KARPAS-299, 72 h

In order of falling IC50:
1. Cc1ccc(F)cc1Cc1ccc2[nH]nc(NC(=O)c3ccc(N4CCN(C)CC4)cc3NC3CCOCC3)c2c1  851 nM
2. CN1CCN(c2ccc(C(=O)Nc3n[nH]c4ccc(Cc5cc(F)cc(F)c5)cc34)c(NCC3CN(C)C3)c2)CC1  386 nM
3. COCCNc1cc(N2CCN(C)CC2)ccc1C(=O)Nc1n[nH]c2ccc(Cc3cc(F)cc(F)c3)cc12  243 nM
4. COCCCNc1cc(N2CCN(C)CC2)ccc1C(=O)Nc1n[nH]c2ccc(Cc3cc(F)cc(F)c3)cc12  194 nM
5. CN1CCN(c2ccc(C(=O)Nc3n[nH]c4ccc(Cc5ccccc5)cc34)c(NC3CCOCC3)c2)CC1  182 nM
6. C[C@H](c1cc(F)cc(F)c1)c1ccc2[nH]nc(NC(=O)c3ccc(N4CCN(C)CC4)cc3NC3CCOCC3)c2c1  41 nM

Target: ALK tyrosine kinase receptor (Homo sapiens, UniProt Q9UM73)
Details: not given

ALK tyrosine kinase receptor, sequence (Q9UM73 whole entry): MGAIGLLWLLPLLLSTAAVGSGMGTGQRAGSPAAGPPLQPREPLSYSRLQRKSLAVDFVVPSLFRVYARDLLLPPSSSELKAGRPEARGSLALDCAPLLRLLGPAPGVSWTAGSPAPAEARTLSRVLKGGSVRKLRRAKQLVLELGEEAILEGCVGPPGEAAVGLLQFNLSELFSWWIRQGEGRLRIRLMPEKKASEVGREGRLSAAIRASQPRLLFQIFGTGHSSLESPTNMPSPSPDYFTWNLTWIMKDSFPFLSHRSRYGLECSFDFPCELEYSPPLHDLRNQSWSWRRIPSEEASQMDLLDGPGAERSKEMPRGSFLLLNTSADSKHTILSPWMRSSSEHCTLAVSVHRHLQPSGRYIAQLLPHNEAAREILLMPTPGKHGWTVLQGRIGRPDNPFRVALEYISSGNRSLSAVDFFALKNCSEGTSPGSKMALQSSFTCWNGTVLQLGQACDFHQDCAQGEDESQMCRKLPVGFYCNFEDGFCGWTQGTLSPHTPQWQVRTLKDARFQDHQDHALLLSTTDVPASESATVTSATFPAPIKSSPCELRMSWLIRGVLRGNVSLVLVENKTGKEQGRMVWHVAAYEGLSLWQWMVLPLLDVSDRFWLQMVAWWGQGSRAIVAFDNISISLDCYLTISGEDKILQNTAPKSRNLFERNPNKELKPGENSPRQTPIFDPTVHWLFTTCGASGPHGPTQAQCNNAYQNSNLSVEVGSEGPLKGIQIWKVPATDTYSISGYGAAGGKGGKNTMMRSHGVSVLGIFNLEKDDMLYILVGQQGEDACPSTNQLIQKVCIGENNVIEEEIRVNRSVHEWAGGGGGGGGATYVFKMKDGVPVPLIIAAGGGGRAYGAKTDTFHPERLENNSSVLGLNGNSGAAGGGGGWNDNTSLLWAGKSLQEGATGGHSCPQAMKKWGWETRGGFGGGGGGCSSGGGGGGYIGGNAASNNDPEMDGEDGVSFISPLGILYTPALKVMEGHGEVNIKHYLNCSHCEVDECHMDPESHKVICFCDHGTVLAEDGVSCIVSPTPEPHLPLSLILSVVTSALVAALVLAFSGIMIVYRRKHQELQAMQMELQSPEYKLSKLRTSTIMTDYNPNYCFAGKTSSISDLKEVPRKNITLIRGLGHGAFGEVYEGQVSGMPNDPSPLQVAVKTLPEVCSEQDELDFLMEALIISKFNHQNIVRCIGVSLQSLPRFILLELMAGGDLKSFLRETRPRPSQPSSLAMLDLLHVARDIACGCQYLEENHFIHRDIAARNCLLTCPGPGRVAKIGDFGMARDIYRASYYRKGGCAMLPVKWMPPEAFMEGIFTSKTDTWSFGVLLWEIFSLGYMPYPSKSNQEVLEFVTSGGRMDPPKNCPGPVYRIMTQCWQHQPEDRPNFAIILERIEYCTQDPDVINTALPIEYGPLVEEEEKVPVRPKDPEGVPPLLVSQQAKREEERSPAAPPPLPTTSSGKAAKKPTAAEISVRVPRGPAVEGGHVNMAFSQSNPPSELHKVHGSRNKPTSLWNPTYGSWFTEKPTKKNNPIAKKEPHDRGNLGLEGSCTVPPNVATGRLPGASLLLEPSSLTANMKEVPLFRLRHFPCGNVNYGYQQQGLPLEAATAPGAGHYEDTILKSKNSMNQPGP

In order of falling IC50:
1. COCCNc1cc(N2CCN(C)CC2)ccc1C(=O)Nc1n[nH]c2ccc(Cc3cc(F)cc(F)c3)cc12  210 nM
2. Cc1ccc(F)cc1Cc1ccc2[nH]nc(NC(=O)c3ccc(N4CCN(C)CC4)cc3NC3CCOCC3)c2c1  181 nM
3. COCCCNc1cc(N2CCN(C)CC2)ccc1C(=O)Nc1n[nH]c2ccc(Cc3cc(F)cc(F)c3)cc12  135 nM
4. CN1CCN(c2ccc(C(=O)Nc3n[nH]c4ccc(Cc5ccccc5)cc34)c(NC3CCOCC3)c2)CC1  106 nM
5. CN1CCN(c2ccc(C(=O)Nc3n[nH]c4ccc(Cc5cc(F)cc(F)c5)cc34)c(NCC3CN(C)C3)c2)CC1  67 nM
6. C[C@H](c1cc(F)cc(F)c1)c1ccc2[nH]nc(NC(=O)c3ccc(N4CCN(C)CC4)cc3NC3CCOCC3)c2c1  59 nM

Target: Insulin receptor (Homo sapiens, UniProt P06213)
Assay: Inhibition of IR (unknown origin) in presence of gamma33-ATP
Details: not given

Insulin receptor, sequence (P06213 28-758 limits assumed): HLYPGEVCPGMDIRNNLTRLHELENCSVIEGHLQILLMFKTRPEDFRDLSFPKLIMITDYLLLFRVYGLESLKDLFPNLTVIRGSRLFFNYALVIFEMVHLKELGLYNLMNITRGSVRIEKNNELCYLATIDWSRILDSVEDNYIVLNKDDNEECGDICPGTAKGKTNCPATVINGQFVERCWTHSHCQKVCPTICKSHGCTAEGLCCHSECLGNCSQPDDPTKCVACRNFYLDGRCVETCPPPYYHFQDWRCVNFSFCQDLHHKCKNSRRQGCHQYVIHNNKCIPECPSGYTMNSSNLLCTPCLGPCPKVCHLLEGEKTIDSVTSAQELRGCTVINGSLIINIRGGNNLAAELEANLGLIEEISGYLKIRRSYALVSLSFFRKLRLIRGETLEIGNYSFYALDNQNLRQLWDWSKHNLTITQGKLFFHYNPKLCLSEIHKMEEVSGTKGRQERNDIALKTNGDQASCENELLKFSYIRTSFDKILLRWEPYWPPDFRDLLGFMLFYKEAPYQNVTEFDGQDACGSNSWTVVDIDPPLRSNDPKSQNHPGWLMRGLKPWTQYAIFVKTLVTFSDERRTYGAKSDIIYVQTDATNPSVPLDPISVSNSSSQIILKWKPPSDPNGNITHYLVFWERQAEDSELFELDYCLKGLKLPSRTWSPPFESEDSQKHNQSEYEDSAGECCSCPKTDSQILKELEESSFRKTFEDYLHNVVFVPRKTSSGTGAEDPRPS
Insulin receptor, sequence (P06213 763-1382 limits assumed): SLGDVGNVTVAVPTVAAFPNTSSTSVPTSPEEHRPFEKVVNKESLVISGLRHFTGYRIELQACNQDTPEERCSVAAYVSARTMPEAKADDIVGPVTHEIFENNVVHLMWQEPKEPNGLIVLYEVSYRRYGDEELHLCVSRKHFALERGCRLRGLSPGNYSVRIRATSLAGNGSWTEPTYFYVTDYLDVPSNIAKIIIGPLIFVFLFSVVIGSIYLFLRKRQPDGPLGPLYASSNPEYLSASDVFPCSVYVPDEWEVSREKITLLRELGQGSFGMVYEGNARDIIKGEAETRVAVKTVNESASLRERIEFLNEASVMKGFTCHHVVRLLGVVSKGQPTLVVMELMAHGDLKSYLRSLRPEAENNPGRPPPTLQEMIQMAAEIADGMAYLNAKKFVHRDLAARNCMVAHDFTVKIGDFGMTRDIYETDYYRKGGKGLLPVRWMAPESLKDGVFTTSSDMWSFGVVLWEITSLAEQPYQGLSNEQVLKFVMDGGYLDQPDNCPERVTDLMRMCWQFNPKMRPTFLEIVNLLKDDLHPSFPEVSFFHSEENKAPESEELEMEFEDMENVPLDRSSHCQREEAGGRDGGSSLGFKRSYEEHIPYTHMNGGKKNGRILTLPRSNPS

In order of rising IC50:
1. CN1CCN(c2ccc(C(=O)Nc3n[nH]c4ccc(Cc5cc(F)cc(F)c5)cc34)c(NCC3CN(C)C3)c2)CC1  353 nM
2. Cc1ccc(F)cc1Cc1ccc2[nH]nc(NC(=O)c3ccc(N4CCN(C)CC4)cc3NC3CCOCC3)c2c1  823 nM
3. C[C@H](c1cc(F)cc(F)c1)c1ccc2[nH]nc(NC(=O)c3ccc(N4CCN(C)CC4)cc3NC3CCOCC3)c2c1  1160 nM
4. COCCCNc1cc(N2CCN(C)CC2)ccc1C(=O)Nc1n[nH]c2ccc(Cc3cc(F)cc(F)c3)cc12  1190 nM
5. CN1CCN(c2ccc(C(=O)Nc3n[nH]c4ccc(Cc5ccccc5)cc34)c(NC3CCOCC3)c2)CC1  1490 nM
6. COCCNc1cc(N2CCN(C)CC2)ccc1C(=O)Nc1n[nH]c2ccc(Cc3cc(F)cc(F)c3)cc12  1760 nM
